Results reported in US11931372B2, “Pharmaceutical composition containing pentacyclic triterpenoids” (SPV TIMSER, S.A.P.I. DE C.V., priority 2021, dated 2024).
Read-outs that look alike come from different tables or passages of the source.

Columns and labels:
[1] = test system: murine respiratory tract tissue; conditions: mouse, in vivo, 14 days
[2] = 75 mg of GA administered orally; cited from earlier work
[3] = test system: murine respiratory tract tissue; experiment: Toxicity and irritability assay by the inhaled route in murine rodents, histopathological lesion score; conditions: for Degenerative: Alveolar lesion score / Degenerative: Bronchial lesion score / Degenerative: Bronchiolar lesion score / Fibrosis: Alveolar Septa lesion score / Fibrosis: Peribronchial lesion score / Fibrosis: Peribronchiolar lesion score / Inflammatory: Bronchiolitis lesion score / Inflammatory: Bronchitis lesion score / Inflammatory: Hyaline Membrane lesion score / Inflammatory: Interstitial Pneumonia lesion score / Inflammatory: Vasculitis lesion score / Necrosis: Alveolar lesion score / Necrosis: Bronchial lesion score / Necrosis: Bronchiolar lesion score / Vascular: Alveolar edema lesion score / Vascular: Congestion lesion score / Vascular: Hemorrhage lesion score / Vascular: Interstitial edema lesion score / Vascular: Thrombosis lesion score / TOTAL damage and lesion rating: inhaled 10 min/day for 14 days; for Degenerative: Alveolar lesion score / Degenerative: Bronchial lesion score / Degenerative: Bronchiolar lesion score / Fibrosis: Alveolar Septa lesion score / Fibrosis: Peribronchial lesion score / Fibrosis: Peribronchiolar lesion score / Inflammatory: Bronchiolitis lesion score / Inflammatory: Bronchitis lesion score / Inflammatory: Hyaline Membrane lesion score / Inflammatory: Interstitial Pneumonia lesion score / Inflammatory: Vasculitis lesion score / Necrosis: Alveolar lesion score / Necrosis: Bronchial lesion score / Necrosis: Bronchiolar lesion score / Vascular: Alveolar edema lesion score / Vascular: Congestion lesion score / Vascular: Hemorrhage lesion score / Vascular: Interstitial edema lesion score / Vascular: Thrombosis lesion score: score 0-5; for TOTAL damage and lesion rating: sum of scores
[4] = Pharmacokinetic study in healthy volunteers, inhaled route by nebulizer; type: in vivo, human; conditions: GA by inhalation, FIGS. 13 and 14
Protocol: Alternative tests were conducted to verify the synergistic behavior of the compositions of interest. For this reason, the results of pharmacokinetic studies are described and disclosed herein below. The study was based on the application of different versions of the herein claimed pharmaceutical composition to healthy volunteers by the inhaled route of administration, by means of a nebulizer device. The volunteers were given the drug once every 24 hours for three days. In addition, blood samples were taken from them at different time points. These samples were analyzed to quantify glycyrrhizinic acid (GA) and Enoxolone (EN) contents through the mass coupled HPLC methodology. […]
Blood samples of 5 mL were taken from each of the individuals at 30 minutes and at 1, 2, 3, 6, 12, 24, 48, 72 and 96 hours after drug administration. Then, the AG and EN concentrations in these blood samples were determined using the mass coupled HPLC methodology. In all cases, both components were quantified.
The following tables denote pharmacokinetic results (Area Under the Curve (AUC)) of the two drugs assessed (GA and EN). The Area Under the Curve (AUC) is a parameter related to the drug quantity to which the body has been exposed. […] The AUC was calculated using the R programming language within the “PK” software bundle. […]

SARS-CoV = conditions: culture cells; cited from earlier work

Structure (SMILES): CC1(C)[C@@H](O)CC[C@]2(C)[C@H]3C(=O)C=C4[C@@H]5C[C@@](C)(C(=O)O)CC[C@]5(C)CC[C@@]4(C)[C@]3(C)CC[C@@H]12 [EN, 18-β glycyrrhetinic acid]
- Degenerative: Alveolar lesion score [1]: 0
- Fibrosis: Alveolar Septa lesion score [1]: 0
- Fibrosis: Peribronchial lesion score [1]: 0
- Fibrosis: Peribronchiolar lesion score [1]: 0
- Inflammatory: Bronchiolitis lesion score [1]: 0
- Inflammatory: Bronchitis lesion score [1]: 0
- Inflammatory: Hyaline Membrane lesion score [1]: 0
- Inflammatory: Vasculitis lesion score [1]: 0
- Necrosis: Alveolar lesion score [1]: 0
- Necrosis: Bronchial lesion score [1]: 0
- Necrosis: Bronchiolar lesion score [1]: 0
- Vascular: Alveolar edema lesion score [1]: 0
- Vascular: Congestion lesion score [1]: 2
- Vascular: Hemorrhage lesion score [1]: 1
- Vascular: Thrombosis lesion score [1]: 0

Structure (SMILES): CC1(C)[C@@H](O[C@H]2O[C@H](C(=O)O)[C@@H](O)[C@H](O)[C@H]2O[C@@H]2O[C@H](C(=O)O)[C@@H](O)[C@H](O)[C@H]2O)CC[C@]2(C)[C@H]3C(=O)C=C4[C@@H]5C[C@@](C)(C(=O)O)CC[C@]5(C)CC[C@@]4(C)[C@]3(C)CC[C@@H]12 [GA, glycyrrhizic acid]
- EN concentration obtained by oral administration [2]: 200.3 ng/mL
- Degenerative: Alveolar lesion score ([3]; High dosage): 0
- Degenerative: Bronchial lesion score ([3]; High dosage): 1
- Degenerative: Bronchiolar lesion score ([3]; High dosage): 1
- Fibrosis: Alveolar Septa lesion score ([3]; High dosage): 0
- Fibrosis: Peribronchial lesion score ([3]; High dosage): 0
- Fibrosis: Peribronchiolar lesion score ([3]; High dosage): 0
- Inflammatory: Bronchiolitis lesion score ([3]; High dosage): 0
- Inflammatory: Bronchitis lesion score ([3]; High dosage): 0
- Inflammatory: Hyaline Membrane lesion score ([3]; High dosage): 0
- Inflammatory: Interstitial Pneumonia lesion score ([3]; High dosage): 3.5
- Inflammatory: Vasculitis lesion score ([3]; High dosage): 0
- Necrosis: Alveolar lesion score ([3]; High dosage): 0
- Necrosis: Bronchial lesion score ([3]; High dosage): 1
- Necrosis: Bronchiolar lesion score ([3]; High dosage): 0
- Vascular: Alveolar edema lesion score ([3]; High dosage): 0
- Vascular: Congestion lesion score ([3]; High dosage): 2
- Vascular: Hemorrhage lesion score ([3]; High dosage): 2
- Vascular: Interstitial edema lesion score ([3]; High dosage): 2
- Vascular: Thrombosis lesion score ([3]; High dosage): 0
- TOTAL damage and lesion rating ([3]; High dosage): 12.5
- Degenerative: Alveolar lesion score ([3]; Low dosage): 0
- Degenerative: Bronchial lesion score ([3]; Low dosage): 0.5
- Degenerative: Bronchiolar lesion score ([3]; Low dosage): 0.5
- Fibrosis: Alveolar Septa lesion score ([3]; Low dosage): 0
- Fibrosis: Peribronchial lesion score ([3]; Low dosage): 0
- Fibrosis: Peribronchiolar lesion score ([3]; Low dosage): 0
- Inflammatory: Bronchiolitis lesion score ([3]; Low dosage): 0
- Inflammatory: Bronchitis lesion score ([3]; Low dosage): 0
- Inflammatory: Hyaline Membrane lesion score ([3]; Low dosage): 0
- Inflammatory: Interstitial Pneumonia lesion score ([3]; Low dosage): 3
- Inflammatory: Vasculitis lesion score ([3]; Low dosage): 0
- Necrosis: Alveolar lesion score ([3]; Low dosage): 0
- Necrosis: Bronchial lesion score ([3]; Low dosage): 0
- Necrosis: Bronchiolar lesion score ([3]; Low dosage): 0
- Vascular: Alveolar edema lesion score ([3]; Low dosage): 0
- Vascular: Congestion lesion score ([3]; Low dosage): 2
- Vascular: Hemorrhage lesion score ([3]; Low dosage): 3
- Vascular: Interstitial edema lesion score ([3]; Low dosage): 1
- Vascular: Thrombosis lesion score ([3]; Low dosage): 0
- TOTAL damage and lesion rating ([3]; Low dosage): 10
- Effect on basal lesions (in words) ([3]; increases according to the amount of administered drug): generation of additional lesions to the basal lesions
- Time of initial peak value [4]: 60 min
- Inhibition of SARS-CoV replication (SARS-CoV): prevented virus replication in culture cells
